The values below come from article PMC11347135 (2024).

The subject of experiment [1] is d(CGTATACG)2 (DNA, duplex) CGTATACG
The experiment in a line: X-ray crystallography, 1.58 Å.

Experiment [2] has the same test system. The experiment in a line: UV melting at 260 nm. Conditions: 100 mM KCl, 5 mM MgCl2; 20 mM sodium cacodylate pH 7.3; 3 μM DNA, DNA:compound 1:4; 1 °C/min.

For `c1ccc2c(NCCCCCNc3c4ccccc4nc4ccccc34)c3ccccc3nc2c1`, the binding result in experiment [1] (50 mM NaCl, 10 mM MgCl2, 25 mM bis-tris pH 7.0, 15% MPD, 20 °C, 0.3 mM DNA, DNA:DA5 1:1) was “yes”. The Tm increase in experiment [2] was ~ 8.6 °C.

On to `c1ccc2c(NCCCCNc3c4ccccc4nc4ccccc34)c3ccccc3nc2c1`, for which, in experiment [1] (200 mM KCl, 6 mM MnCl2, 50 mM MES pH 6.3, 10% PEG400, 20 °C, 0.5 mM DNA, 1 mM DA4), the binding result is recorded as “yes”. In addition, the Tm increase in experiment [2] was ~ 5.8 °C.
